{"source": "patent US6472583B1", "about": "“Plasmid-based mutation detection system in transgenic fish” (The University of Georgia Research Foundation, Inc., priority 1998, dated 2002)", "origin": "cited, not measured here", "key": {"[1]": {"tested_on": "λLIZ transgenic fish", "details": "previous studies using λLIZ transgenic fish"}, "[2]": {"details": "species not stated"}}, "note": "Where two headings read alike, the source gives them in different places.", "data": [{"molecule": "CCN(N=O)C(N)=O", "note": "[ENU, N-ethyl-N-nitrosourea]", "values": [{"measurement": "mutation frequency induction", "setting": "[1]; dose about 0.5 mM (60 ppm)", "value": "two-fold"}, {"measurement": "mutation frequency induction", "setting": "[1]; dose about 120 ppm, medaka", "value": "four-fold"}, {"measurement": "LD50", "setting": "[2]", "value": "~350", "unit": "mg/kg"}]}]}
